# Data published in publication PMC9181987, “Disclosing the Potential of Fluorinated Ionic Liquids as Interferon-Alpha 2b Delivery Systems” (Nanomaterials, 2022).
# How the values were obtained:
# [1] = parameters: method as in doi:10.5772/INTECHOPEN.96336, doi:10.1016/j.molliq.2022.119285, PMID 25580898; settings: cited from earlier work
# [2] = molecular target: T1, IFN-α 2b (Homo sapiens, UniProt P01563); assay: Intrinsic fluorescence spectroscopy of IFN-α 2b with FILs (λmax shift, Stern–Volmer quenching); type: binding
# T1 construct: purchased Sigma-Aldrich SRP4595; host or cells: E. coli
# Protocol: The concentrations were chosen to cover the range where the different aggregates of the FILs are formed. Samples, equilibrated for 30 min at room temperature, and 400 μL of each solution were transferred to a quartz cuvette of 10 mm pathlength and excited at 280 nm, collecting the fluorescence intensity in a wavelength range of 300 to 450 nm. The width of the excitation and emission slit was set to 5 nm for both cases. The spectra of FIL solutions (blanks) were discounted to the spectra of FIL + protein samples to avoid any possible effect of FIL concentration increment in the fluorescence intensity.
# A very well-known equation, the Stern–Volmer, was used to characterize the quenching occurring in this region. This equation characterizes the collisional quenching that can occur when the excited state of the fluorophore is disabled due to contact with another molecule (quencher), without chemical alteration. Therefore, the collisional quenching is described by:(11) F0/F=1+K[Q]=1+kqτ0[Q] where F0 and F are the fluorescence intensities of the fluorophore in the absence and presence of the quencher, respectively, K is the Stern–Volmer quenching constant, kq is the biomolecular quenching constant, τ0 is the unquenched lifetime, and [Q] is the quencher concentration. […] This value gives information on the sensitivity of the fluorophore to a quencher.
# [3] = Dynamic light scattering: aggregate size and polydispersity index; type: physicochemical; settings: 150 mM NaH2PO4, 25°C
# Protocol: These concentrations were chosen to comprise two different aggregates of each FIL, above the 1st CAC and the 3rd CAC. […] Therefore, 20 μL was transferred into a quartz cell of 10 mm pathlength and measured at 25 °C.
# Moreover, the polydispersity index (PdI) was obtained by DLS which determines the heterogeneity of the sample in the function of the size.
# [4] = cited from earlier work
# [5] = Contact angle goniometry breakpoints; type: physicochemical; settings: 25°C
# Protocol: The force tensiometer is equipped with a platinum Du Noüy ring to surface tension measurement and a thermostatic vessel connected to a bath circulator (RW-0535G, Lab. Companion, Daejeon, Republic of Korea) in order to keep the temperature of the solution constant. Next, 15 mL of each sample was placed in a glass container and left to equilibrate in the thermostatic vessel. After temperature equilibration, the surface tension was measured. The equipment is a standalone-controlled instrument, and the calibration was conducted with a calibration weight with a known mass before measuring the samples. Each sample was measured five times, and the reported surface tension was the average value with an uncertainty of ±0.22 mN/m. Each solution was then assessed by a KSV’s contact angle goniometer CAM100 (Biolin Scientific, Gothenburg, Sweden). A drop of each solution was placed on a Teflon surface with a Hamilton syringe. This equipment is a PC-controlled instrument, and the tilt was set to 0 degrees at the base of the drop and was recorded for 10 frames with an interval of 1 s. The contact angle was calculated for the left and right sides of the drop and the mean value was the resulting contact angle. At least five different drops of each solution were recorded, and the reported contact angle was the resulting average with an uncertainty of ±5%.
# [6] = molecular target: T1, IFN-α 2b; assay: Microscale thermophoresis (MST) binding affinity of FILs with labelled IFN-α 2b; settings: for Kd: labelled IFN-α 2b 2.7 μM, 5 mM NaH2PO4 pH 7.4, 25 °C, ± = Kd confidence of the fitting
# Protocol: Several dilution series of 16 samples of 20 μL were prepared in triplicate for each studied system. All the solutions were prepared in the buffer of the protein, 5 mM of NaH2PO4 (pH = 7.4), and PCR tubes. In the first tube (1 out 16) 20 μL of FIL stock solution was added at twofold the maximum concentration defined for each assay. In the remaining 15 tubes, 10 μL of buffer was added, followed by the series dilution of the FIL. […] The selected concentrations cover the range where the distinct CACs are formed in each FIL. The excitation power was determined by a pre-test and set to 20% whereas the MST power was set to medium (standard). The assays were executed in standard capillaries and triplicates. The results were processed using the MO.Affinity Analysis v2.3 software (NanoTemper Technologies, Munich, Germany).
# In the process of labelling, commonly, one amine per protein is labelled, statistically distributing the position of the dye. […] As explained in the experimental section, in each run of MST, a maximum concentration is chosen and is consecutively diluted in 16 capillaries.
# [7] = 5 μg/mL IFN-α 2b + 5 mM NaH2PO4 (pH=7.4), 1st breakpoint
# [8] = 5 μg/mL IFN-α 2b + 5 mM NaH2PO4 (pH=7.4), 2nd breakpoint
# [9] = 5 μg/mL IFN-α 2b + 5 mM NaH2PO4 (pH=7.4), 3rd breakpoint
# [10] = 5 μg/mL IFN-α 2b + 5 mM NaH2PO4 (pH=7.4), 4th breakpoint
# T1 sequence (P01563 24-188): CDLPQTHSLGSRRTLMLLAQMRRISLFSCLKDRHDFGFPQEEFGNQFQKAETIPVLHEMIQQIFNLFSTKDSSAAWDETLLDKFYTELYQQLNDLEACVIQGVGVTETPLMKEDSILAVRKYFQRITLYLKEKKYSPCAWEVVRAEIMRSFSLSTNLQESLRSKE
smiles,measurement,setting,value
"CCn1cc[n+](C)c1.O=S(=O)([O-])C(F)(F)C(F)(F)C(F)(F)C(F)(F)F [[C2C1Im][C4F9SO3], 1-Ethyl-3-methylimidazolium perfluorobutanesulfonate]",miscibility in water,[1],full miscibility in water
same,Stern–Volmer quenching constant K,"[2]; IFN-α 2b 20 μg/mL, region ~14 mM to ~110 mM FIL, 5 mM NaH2PO4 pH 7.4, excitation 280 nm",0.0106 mM⁻¹
same,biomolecular quenching constant kq,[2]; from K and τ0 of IFN-α 2b,3.59e+09 M⁻¹ s⁻¹
same,Polydispersity index (PdI),[3]; 29.3 mM FIL,1.000
same,Polydispersity index (PdI),[3]; 243.8 mM FIL,0.157
same,toxicity,[4],negligible toxicity
same,"CAC (wFIL), goniometer",[5]; [7],0.0009
same,"CAC, goniometer",[5]; [7],2.101 mmol⸱kg-1
same,"CAC (wFIL), goniometer",[5]; [8],0.0030
same,"CAC, goniometer",[5]; [8],7.288 mmol⸱kg-1
same,"CAC (wFIL), goniometer",[5]; [9],0.0157
same,"CAC, goniometer",[5]; [9],38.18 mmol⸱kg-1
same,"CAC (wFIL), goniometer",[5]; [10],0.0430
same,"CAC, goniometer",[5]; [10],104.7 mmol⸱kg-1
same,"CAC (wFIL), goniometer",[5]; 5 mM NaH2PO4 (pH=7.4),0.0329
same,"CAC, goniometer",[5]; 5 mM NaH2PO4 (pH=7.4),80.27 mmol⸱kg-1
same,Kd,[6]; assay 30 − 9.2 × 10^−4 mM FIL,0.136 ± 0.117 mM
same,Kd,[6]; assay 80 − 2.4 × 10^−3 mM FIL,7.53 ± 5.61 mM
same,Kd,[6]; assay 160 − 4.9 × 10^−3 mM FIL,40.5 ± 29.5 mM
same,binding to IFN-α 2b (MST),"[6]; range of concentrations under the 1st CAC, only FIL monomers",no binding was detected
